One series addresses human BACE1 (Homo sapiens, UniProt P56817). The series can be described thus: BACE-1 fluorescent kinetic assay (Example 88). The format is biochemical. The settings on record: 10 nM enzyme, 25 μM substrate WABC-6, Na-Acetate pH 4.5, room temperature; read-out: BACE1 (IC50 μM). The protocol: Evaluation of BACE-1 Binding Affinity of Test Compounds
Fluorescent Kinetic Assay
Dilution and mixing steps: total reaction volume: 100 μL
100 μM substrate dilution in 1× PBS was prepared, and
Fluorescence Readings: Readings at Aex 320 nm and Aem 420 nm are taken every 40 sec for 30 min at room temperature and the linear slope for substrate cleavage rate (vi) determined.

Consider 16 molecules from patent US20070191431A1, “2-Amino-5-piperidinylimidazolone compounds and use thereof for beta-secretase modulation” (Wyeth, priority 2005, published 2007).

Sequence of human BACE1 (P56817 46-501): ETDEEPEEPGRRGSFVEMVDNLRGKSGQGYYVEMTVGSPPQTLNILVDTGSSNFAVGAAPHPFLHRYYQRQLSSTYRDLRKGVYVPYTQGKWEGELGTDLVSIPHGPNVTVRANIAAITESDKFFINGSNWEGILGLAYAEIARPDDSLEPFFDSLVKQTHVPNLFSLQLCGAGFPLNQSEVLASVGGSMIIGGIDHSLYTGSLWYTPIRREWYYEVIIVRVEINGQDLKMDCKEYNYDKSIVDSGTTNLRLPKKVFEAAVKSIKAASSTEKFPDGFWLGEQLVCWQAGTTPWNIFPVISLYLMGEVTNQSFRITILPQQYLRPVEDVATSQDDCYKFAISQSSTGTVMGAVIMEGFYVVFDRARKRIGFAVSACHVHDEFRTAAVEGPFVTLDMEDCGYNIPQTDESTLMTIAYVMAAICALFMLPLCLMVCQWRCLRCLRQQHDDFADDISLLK

Take `COCC(=O)Nc1cccc(C2(C3CCN(C(=O)c4ccc5c(c4)OCO5)CC3)N=C(N)N(C)C2=O)c1` (centres unmarked) [Example 51]: the melting point was > 160 °C (dec.). Moreover, on human BACE1, the half-maximal inhibitory concentration (IC50) fell in the range of 0.01 to 1 µM.
The like results for `COCC(=O)Nc1cccc(C2(C3CCN(C(=O)c4ccc(C#N)cc4)CC3)N=C(N)N(C)C2=O)c1` (centres unmarked) [Example 52] were, in that order, 160 to 164 °C and 0.01 to 1 µM.
The corresponding values for `COCC(=O)Nc1cccc(C2(C3CCN(C(=O)c4ccoc4)CC3)N=C(N)N(C)C2=O)c1` (centres unmarked) [Example 53] are 140 to 142 °C and 0.01 to 1 µM.
The corresponding values for `COCC(=O)Nc1cccc(C2(C3CCN(C(=O)c4ccc5ccccc5c4)CC3)N=C(N)N(C)C2=O)c1` (centres unmarked) [Example 54] are 168 to 170 °C and 0.01 to 1 µM.
Regarding `COCC(=O)Nc1cccc(C2(C3CCN(C(=O)c4cccs4)CC3)N=C(N)N(C)C2=O)c1` (centres unmarked) [Example 55], the melting point lay within 148 to 152 °C. Besides, at human BACE1, the IC50 was 0.01 to 1 µM.
The corresponding values for `COCC(=O)Nc1cccc(C2(C3CCN(C(=O)COC)CC3)N=C(N)N(C)C2=O)c1` (centres unmarked) [Example 56] are 79 to 80 °C and 1.01 to 3 µM.
The like results for `COCC(=O)Nc1cccc(C2(C3CCN(C(=O)C(F)(F)F)CC3)N=C(N)N(C)C2=O)c1` (centres unmarked) [Example 58] were, in that order, 120 to 122 °C and 0.01 to 1 µM.
The like results for `COCC(=O)Nc1cccc(C2(C3CCN(Cc4ccccc4)CC3)N=C(N)N(C)C2=O)c1` (centres unmarked) [Example 59, N{3-[2-Amino-4-(1-benzylpiperidin-4-yl)-1-methyl-5-oxo-4,5-dihydro-1H-imidazol-4-yl]phenyl}-2-methoxyacetamide] were, in that order, 120 to 123 °C and more than 3 µM.
`CN1C(=O)C(c2cccc(-c3cccnc3F)c2)(C2CCN(C(=O)c3ccccc3)CC2)N=C1N` (centres unmarked) [Example 80, 2-amino-5-(1-benzoylpiperidin-4-yl)-5-[3-(2-fluoropyridin-3-yl)phenyl]-3-methyl-3,5-dihydro-4H-imidazol-4-one] displayed a melting point of 152 to 154 °C. The IC50 at human BACE1 lay in the range of 0.01 to 1 µM.
The corresponding values for `CN1C(=O)C(c2cccc(-c3cncnc3)c2)(C2CCN(C(=O)c3ccccc3)CC2)N=C1N` (centres unmarked) [Example 81, 2-amino-5-(1-benzoylpiperidin-4-yl)-3-methy-5-(3-pyrimidin-5-ylphenyl)-3,5-dihydro-4H-imidazol-4-one] are 156 to 158 °C and 0.01 to 1 µM.
The corresponding values for `COc1cncc(-c2cccc(C3(C4CCN(C(=O)c5ccccc5)CC4)N=C(N)N(C)C3=O)c2)c1` (centres unmarked) [Example 82, 2-amino-5-(1-benzoylpiperidin-4-yl)-5-[3-(5-methoxypyridin-3-yl)phenyl]-3-methyl-3,5-dihydro-4H-imidazol-4-one] are 150 to 153 °C and 0.01 to 1 µM.
The corresponding values for `COc1cccc(-c2cccc(C3(C4CCN(C(=O)c5ccccc5)CC4)N=C(N)N(C)C3=O)c2)c1` (centres unmarked) [Example 83, 2-amino-5-(1-benzoylpiperidin-4-yl)-5-(3′-methoxybiphenyl-3-yl)-3-methyl-3,5-dihydro-4H-imidazol-4-one] are 163 to 165 °C and 0.01 to 1 µM.
With `CN1C(=O)C(c2cccc(-c3cccc(F)c3)c2)(C2CCN(C(=O)c3ccccc3)CC2)N=C1N` (centres unmarked) [Example 84, 2-amino-5-(1-benzoylpiperidin-4-yl)-5-(3′-fluorobiphenyl-3-yl)-3-methyl-3,5dihydro-4H-imidazol-4-one], the melting point fell in the range of 165 to 168 °C. The IC50 at human BACE1 lay in the range of 0.01 to 1 µM.
The like results for `CN1C(=O)C(c2cccc(-c3cccc(Cl)c3)c2)(C2CCN(C(=O)c3ccccc3)CC2)N=C1N` (centres unmarked) [Example 85, 2-amino-5-(1-benzoylpiperidin-4-yl)-5-(3′-chlorobiphenyl-3-yl)-3-methyl-3,5-dihydro-4H-imidazol-4-one] were, in that order, 165 to 166 °C and 0.01 to 1 µM.
The like results for `CN1C(=O)C(c2cccc(-c3cc(F)ccc3F)c2)(C2CCN(C(=O)c3ccccc3)CC2)N=C1N` (centres unmarked) [Example 86, 2-amino-5-(1-benzoylpiperidin-4-y)-5-(2′,5′-difluorobiphenyl-3-yl)-3-methyl-3,5-dihydro-4H-imidazol-4-one] were, in that order, > 150 °C (dec.) and 0.01 to 1 µM.
The like results for `CN1C(=O)C(c2cccc(-c3cc(F)cc(F)c3)c2)(C2CCN(C(=O)c3ccccc3)CC2)N=C1N` (centres unmarked) [Example 87, 2-amino-5-(1-benzoylpiperidin-4-yl)-5-(3′,5′-difluorobiphenyl-3-yl)-3-methyl-3,5-dihydro-4H-imidazol-4-one] were, in that order, > 150 °C (dec.) and 0.01 to 1 µM.

What is called IC50 is the point on the concentration scale where inhibition reaches its midpoint. What is called melting point is the temperature, or range, at which the solid turns liquid.
